Reference: patent US20260013501A1, “HERBICIDAL DERIVATIVES” (SYNGENTA CROP PROTECTION AG, priority 2022, published 2026)

Tests used:
Type in all cases: in vivo
[1] = test system: Amaranthus retoflexus (AMARE); assay: Pre-emergence Test (Table B1), AMARE; details: evaluated after 13 days
[2] = test system: Echinochloa crus-galli (ECHCG); assay: Post-emergence Test (Table B2), ECHCG; parameters: key: 5-point damage scale: 5=81-100%, 4=61-80%, 3=41-60%, 2=21-40%, 1=0-20%; details: evaluated after 13 days
Protocol: (§1) Seeds of a variety of test species are sown in standard soil in pots (Ipomoea hederacea (IPOHE), Zea mays (ZEAMX), Echinochloa crus-galli (ECHCG), Amaranthus palmeri (AMAPA), (Amaranthus retoflexus (AMARE), and (Setaria faberi (SETFA)). After 8 days cultivation under controlled conditions in a glasshouse (at 24° C./16° C., day/night; 14 hours light; 65% humidity), the plants are sprayed with an aqueous spray solution derived from the formulation of the technical active ingredient in acetone/water (50:50) solution containing 0.5% Tween 20 (polyoxyethelyene sorbitan monolaurate, CAS RN 9005-64-5). Rate of application is shown in g/ha in the tables below. The test plants are then grown in a glasshouse under controlled conditions in a glasshouse (at 24° C./16° C., day/night; 14 hours light; 65% humidity) and watered twice daily. After 13 days the test is evaluated for the percentage damage caused to the plant. The biological activities are shown in the following table on a five-point scale (5=81-100%; 4=61-80%; 3=41-60%; 2=21-40%; 1=0-20%; -=not tested).

[3] = test system: Setaria faberi (SETFA); assay: Post-emergence Test (Table B2), SETFA; parameters: key: five-point scale: 5=81-100%, 4=61-80%, 3=41-60%, 2=21-40%, 1=0-20% damage; details: evaluated after 13 days
Protocol: as §1

[4] = test system: Zea mays (ZEAMX); assay: Post-emergence Test (Table B2), ZEAMX; parameters: key: 5-point damage scale: 5=81-100%, 4=61-80%, 3=41-60%, 2=21-40%, 1=0-20%; details: evaluated after 13 days
Method in brief: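 Score: % damage at 13 d on a 5-point scale (5=81-100%; 4=61-80%; 3=41-60%; 2=21-40%; 1=0-20%). Seeds sown in pots, sprayed with test article in acetone/water 50:50 + 0.5% Tween 20; rate in g/ha. Glasshouse 24/16 °C, 14 h light, 65% RH, watered twice daily.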

[5] = test system: Ipomoea hederacea (IPOHE); assay: Pre-emergence Test (Table B1), IPOHE; details: evaluated after 13 days
[6] = test system: Zea mays (ZEAMX); assay: Pre-emergence Test (Table B1), ZEAMX; details: evaluated after 13 days
[7] = test system: Echinochloa crus-galli (ECHCG); assay: Pre-emergence Test (Table B1), ECHCG; details: Rate 250 g/Ha, evaluated after 13 days
[8] = test system: Amaranthus retoflexus (AMARE); assay: Post-emergence Test (Table B2), AMARE; parameters: key: five-point scale: 5=81-100%, 4=61-80%, 3=41-60%, 2=21-40%, 1=0-20% damage; details: evaluated after 13 days
Protocol: as §1

[9] = test system: Amaranthus palmeri (AMAPA); assay: Pre-emergence Test (Table B1), AMAPA; details: evaluated after 13 days
[10] = test system: Amaranthus palmeri (AMAPA); assay: Post-emergence Test (Table B2), AMAPA; parameters: key: five-point scale: 5=81-100%, 4=61-80%, 3=41-60%, 2=21-40%, 1=0-20% damage; details: evaluated after 13 days
Protocol: as §1

CCn1c(Cc2cccc(OC)c2)cc(=O)c(C(=O)O)c1-c1ccc(Cl)c(Cl)c1 [Compound 9, 2-(3,4-dichlorophenyl)-1-ethyl-6-[(3-methoxyphenyl)methyl]-4-oxo-pyridine-3-carboxylic acid]
0: Pre-emergence Test, percentage damage caused to the plant (five-point scale), AMARE ([1]; Rate 250 g/Ha) | percentage damage caused to the plant, ECHCG ([2]; rate 250 g/Ha) | percentage damage caused to the plant, SETFA ([3]; rate 250 g/Ha) | percentage damage caused to the plant, ZEAMX ([4]; rate 250 g/Ha) | Pre-emergence Test, percentage damage caused to the plant (five-point scale), IPOHE ([5]; Rate 250 g/Ha) | Pre-emergence Test, percentage damage caused to the plant (five-point scale), ZEAMX ([6]; Rate 250 g/Ha) | Pre-emergence Test, percentage damage caused to the plant (five-point scale), ECHCG [7] | percentage damage caused to the plant, AMARE ([8]; rate 250 g/Ha)

CCn1c(Cc2cc(Cl)cc(Cl)c2)cc(=O)c(C(=O)O)c1-c1ccc(Cl)c(Cl)c1 [Compound 10, 2-(3,4-dichlorophenyl)-6-[(3,5-dichlorophenyl)methyl]-1-ethyl-4-oxo-pyridine-3-carboxylic acid]
0: percentage damage caused to the plant, ECHCG ([2]; rate 1000 g/Ha) | percentage damage caused to the plant, SETFA ([3]; rate 1000 g/Ha) | percentage damage caused to the plant, ZEAMX ([4]; rate 1000 g/Ha)

CCn1c(Cc2ccccc2C)cc(=O)c(C(=O)O)c1-c1ccc(Cl)c(Cl)c1 [Compound 15, 2-(3,4-dichlorophenyl)-1-ethyl-6-(o-tolylmethyl)-4-oxo-pyridine-3-carboxylic acid]
0: percentage damage caused to the plant, ECHCG ([2]; rate 1000 g/Ha) | percentage damage caused to the plant, SETFA ([3]; rate 1000 g/Ha)

CCn1c(Cc2cncc(Cl)c2)cc(=O)c(C(=O)O)c1-c1ccc(Cl)c(Cl)c1 [Compound 17, 6-[(5-chloro-3-pyridyl)methyl]-2-(3,4-dichlorophenyl]-1-ethyl-4-oxo-pyridine-3-carboxylic acid]
0: Pre-emergence Test, percentage damage caused to the plant (five-point scale), AMARE ([1]; Rate 250 g/Ha) | percentage damage caused to the plant, ECHCG ([2]; rate 250 g/Ha) | percentage damage caused to the plant, ZEAMX ([4]; rate 250 g/Ha) | Pre-emergence Test, percentage damage caused to the plant (five-point scale), IPOHE ([5]; Rate 250 g/Ha) | Pre-emergence Test, percentage damage caused to the plant (five-point scale), ZEAMX ([6]; Rate 250 g/Ha) | Pre-emergence Test, percentage damage caused to the plant (five-point scale), AMAPA ([9]; Rate 250 g/Ha) | percentage damage caused to the plant, AMAPA ([10]; rate 250 g/Ha) | Pre-emergence Test, percentage damage caused to the plant (five-point scale), ECHCG [7] | percentage damage caused to the plant, AMARE ([8]; rate 250 g/Ha)

CCn1c(Cc2ccc(C)cc2F)cc(=O)c(C(=O)O)c1-c1ccc(Cl)c(Cl)c1 [Compound 67, 2-(3,4-dichlorophenyl)-1-3ethyl-6-[(2-fluoro-4-methyl-phenyl)methyl]-4-oxo-pyridine-3-3-carboxylic acid]
0: Pre-emergence Test, percentage damage caused to the plant (five-point scale), AMARE ([1]; Rate 250 g/Ha) | percentage damage caused to the plant, ECHCG ([2]; rate 250 g/Ha) | percentage damage caused to the plant, SETFA ([3]; rate 250 g/Ha) | Pre-emergence Test, percentage damage caused to the plant (five-point scale), IPOHE ([5]; Rate 250 g/Ha) | Pre-emergence Test, percentage damage caused to the plant (five-point scale), ZEAMX ([6]; Rate 250 g/Ha) | Pre-emergence Test, percentage damage caused to the plant (five-point scale), AMAPA ([9]; Rate 250 g/Ha) | percentage damage caused to the plant, AMAPA ([10]; rate 250 g/Ha)

CCn1c(Cc2ccc(F)cc2Cl)cc(=O)c(C(=O)O)c1-c1ccc(Cl)c(Cl)c1 [Compound 68, 6-[(2-chloro-4-fluoro-phenyl)methyl]-2-(3,4-dichlorophenyl)-1-ethyl-4-oxo-3-pyridine-3-carboxylic acid]
0: percentage damage caused to the plant, ECHCG ([2]; rate 1000 g/Ha) | Pre-emergence Test, percentage damage caused to the plant (five-point scale), IPOHE ([5]; Rate 1000 g/Ha) | Pre-emergence Test, percentage damage caused to the plant (five-point scale), ZEAMX ([6]; Rate 1000 g/Ha) | percentage damage caused to the plant, AMAPA ([10]; rate 1000 g/Ha) | percentage damage caused to the plant, AMARE ([8]; rate 1000 g/Ha)

CCn1c(Cc2ccc(OC)cc2Cl)cc(=O)c(C(=O)O)c1-c1ccc(Cl)c(Cl)c1 [Compound 69, 6-[(2-chloro-4-methoxy-phenyl)methyl]-2-(3,4-dichlorophenyl)-1-ethyl-4-oxo-pyridine-3-carboxylic acid]
0: Pre-emergence Test, percentage damage caused to the plant (five-point scale), AMARE ([1]; Rate 1000 g/Ha) | percentage damage caused to the plant, ECHCG ([2]; rate 1000 g/Ha) | Pre-emergence Test, percentage damage caused to the plant (five-point scale), IPOHE ([5]; Rate 1000 g/Ha) | Pre-emergence Test, percentage damage caused to the plant (five-point scale), ZEAMX ([6]; Rate 1000 g/Ha) | Pre-emergence Test, percentage damage caused to the plant (five-point scale), AMAPA ([9]; Rate 1000 g/Ha) | percentage damage caused to the plant, AMAPA ([10]; rate 1000 g/Ha) | percentage damage caused to the plant, AMARE ([8]; rate 1000 g/Ha)

CCn1c(Cc2ccc(F)c(Cl)c2)cc(=O)c(C(=O)O)c1-c1ccc(Cl)c(Cl)c1 [Compound 75, 6-[(3-chloro-4-fluoro-phenyl)methyl]-2-(3,4-dichlorophenyl)-1-ethyl-4-oxo-pyridine-3-carboxylic acid]
0: percentage damage caused to the plant, ZEAMX ([4]; rate 1000 g/Ha) | Pre-emergence Test, percentage damage caused to the plant (five-point scale), ZEAMX ([6]; Rate 1000 g/Ha) | percentage damage caused to the plant, AMAPA ([10]; rate 1000 g/Ha) | percentage damage caused to the plant, AMARE ([8]; rate 1000 g/Ha)

CCn1c(Cc2ccc(OC)c(Cl)c2)cc(=O)c(C(=O)O)c1-c1ccc(Cl)c(Cl)c1 [Compound 86, 6-[(3-chloro-4-methoxy-phenyl)methyl]-2-(3,4-dichlorophenyl)-1-ethyl-4-oxo-pyridine-3-carboxylic acid]
0: Pre-emergence Test, percentage damage caused to the plant (five-point scale), IPOHE ([5]; Rate 250 g/Ha) | Pre-emergence Test, percentage damage caused to the plant (five-point scale), ZEAMX ([6]; Rate 250 g/Ha) | Pre-emergence Test, percentage damage caused to the plant (five-point scale), AMAPA ([9]; Rate 250 g/Ha) | percentage damage caused to the plant, AMAPA ([10]; rate 250 g/Ha) | percentage damage caused to the plant, AMARE ([8]; rate 250 g/Ha)

CCn1c(Cc2ccc(C)c(C#N)n2)cc(=O)c(C(=O)O)c1-c1ccc(Cl)c(Cl)c1 [Compound 113, 6-[(6-cyano-5-methyl-2-pyridyl)methyl]-2-(3,4-dichlorophenyl)-1-ethyl-4-oxo-pyridine-3-carboxylic acid]
0: Pre-emergence Test, percentage damage caused to the plant (five-point scale), AMARE ([1]; Rate 250 g/Ha) | Pre-emergence Test, percentage damage caused to the plant (five-point scale), ZEAMX ([6]; Rate 250 g/Ha) | Pre-emergence Test, percentage damage caused to the plant (five-point scale), AMAPA ([9]; Rate 250 g/Ha) | percentage damage caused to the plant, AMAPA ([10]; rate 250 g/Ha) | percentage damage caused to the plant, AMARE ([8]; rate 250 g/Ha)

CCn1c(Cc2cc(C)n(C)n2)cc(=O)c(C(=O)O)c1-c1ccc(Cl)c(Cl)c1 [Compound 120, 2-(3,4-dichlorophenyl)-6-[(1,5-dimethylpyrazol-3-yl)methyl]-1-ethyl-4-oxo-pyridine-3-carboxylic acid]
0: Pre-emergence Test, percentage damage caused to the plant (five-point scale), AMARE ([1]; Rate 250 g/Ha) | Pre-emergence Test, percentage damage caused to the plant (five-point scale), IPOHE ([5]; Rate 250 g/Ha) | Pre-emergence Test, percentage damage caused to the plant (five-point scale), ZEAMX ([6]; Rate 250 g/Ha) | Pre-emergence Test, percentage damage caused to the plant (five-point scale), AMAPA ([9]; Rate 250 g/Ha) | percentage damage caused to the plant, AMAPA ([10]; rate 250 g/Ha) | Pre-emergence Test, percentage damage caused to the plant (five-point scale), ECHCG [7] | percentage damage caused to the plant, AMARE ([8]; rate 250 g/Ha)

CCOc1cccc(Cc2cc(=O)c(C(=O)O)c(-c3ccc(Cl)c(Cl)c3)n2CC)n1 [Compound 127, 2-(3,4-dichlorophenyl)-6-[(6-ethoxy-2-pyridyl)methyl]-1-ethyl-4-oxo-pyridine-3-carboxylicacid]
0: Pre-emergence Test, percentage damage caused to the plant (five-point scale), AMARE ([1]; Rate 250 g/Ha) | percentage damage caused to the plant, ECHCG ([2]; rate 250 g/Ha) | percentage damage caused to the plant, SETFA ([3]; rate 250 g/Ha) | percentage damage caused to the plant, ZEAMX ([4]; rate 250 g/Ha) | Pre-emergence Test, percentage damage caused to the plant (five-point scale), IPOHE ([5]; Rate 250 g/Ha) | Pre-emergence Test, percentage damage caused to the plant (five-point scale), ZEAMX ([6]; Rate 250 g/Ha) | Pre-emergence Test, percentage damage caused to the plant (five-point scale), AMAPA ([9]; Rate 250 g/Ha) | Pre-emergence Test, percentage damage caused to the plant (five-point scale), ECHCG [7]

CCn1c(Cc2cc(C)on2)cc(=O)c(C(=O)O)c1-c1ccc(Cl)c(Cl)c1 [Compound 135, 2-(3,4-dichlorophenyl)-1-ethyl-6-[(5-methylisoxazol-3-yl)methyl]-4-oxo-pyridine-3-carboxylic acid]
0: percentage damage caused to the plant, ECHCG ([2]; rate 250 g/Ha) | percentage damage caused to the plant, SETFA ([3]; rate 250 g/Ha) | Pre-emergence Test, percentage damage caused to the plant (five-point scale), IPOHE ([5]; Rate 250 g/Ha) | Pre-emergence Test, percentage damage caused to the plant (five-point scale), ZEAMX ([6]; Rate 250 g/Ha) | Pre-emergence Test, percentage damage caused to the plant (five-point scale), AMAPA ([9]; Rate 250 g/Ha) | Pre-emergence Test, percentage damage caused to the plant (five-point scale), ECHCG [7]
